Results taken from article PMC11134387, “Cancer-Stem-Cell Phenotype-Guided Discovery of a Microbiota-Inspired Synthetic Compound Targeting NPM1 for Leukemia” (JACS Au, 2024).

Experiments:
[1] = tested on: primary CD34+ cells from AML patients; assay: Flow cytometry CD34-PE/Annexin V-FITC of primary HSCs from AML patients; format: cell-based, human; settings: 5μM, representative sample
Description: The inhibition of NPM1, especially NPM1 C+ pathway (as shown in Figure 4), by UCM-13369 correlates with the increase of apoptosis observed in treated primary CD34+ cells upon staining with Annexin V (Figure 5C).
CFU-E and CD34+ primary cells with and without UCM-13369 treatment were analyzed. The following monoclonal antibodies were used: CD34-PE, Annexin V-FITC (BD Biosciences). The cells were incubated with antibodies in PBS on ice for 15 min in the dark. The analysis of CD34+ and Annexin V+ subpopulation was carried out in a flow cytometer FACSCalibur (Becton Dickinson, Citometría y Microscopía de Fluorescencia core facility, UCM) and the data were processed using FlowJo_V10 software.

NPM1 C+ = assay: Confocal microscopy of NPM1 subcellular localization in OCI-AML3 cells; format: cell-based; settings: OCI-AML3, 10 μM
Description: To further elucidate the mechanism of action of UCM-13369, we studied the influence of the compound on the subcellular localization of the protein by confocal microscopy, using an Alexa Fluor-647-conjugated NPM1 primary antibody (Figure 4D).
Cells were plated onto glass coverslips or Greiner Bio-One μClear black 96-well plate (7.5 × 10^4 cells per well) and treated with compound UCM-13369 for 48 h. Then, cells were fixed with 4% paraformaldehyde for 15 min, permeabilized with 0.1% Triton X-100 for 30 min, and blocked in 5% bovine serum albumin for 1 h at rt. Incubation with primary antibodies against NPM1 (7H10B9, NOVUS Biologicals) was carried out overnight at 4 °C. Alexa Fluor-488-conjugated antimouse or antirabbit antibodies (Molecular Probes) were used for detection of the reported proteins by confocal microscopy. Nuclei were counterstained with 4′,6-diamidino-2-phenylindole (DAPI) bath. A total of 35 fields per well were acquired with ×40 magnification lens for those samples run in the Opera HCS system (PerkinElmer). Images were segmented using the DAPI staining and the coefficient of variation of NPM1 intensity per nucleus/cytoplasm was calculated using Definiens Developer XD software.

[2] = Viability of non-tumor fibroblast cell line; format: cell-based; settings: human, IMR90 non-tumor fibroblasts; @5 µM
Description: (§1) The test compound was diluted in PBS.
(§2) Viability (%) tum orsphere form ation (%)

IMR90 fibroblasts = assay: Viability of non-tumor fibroblast cell line; format: cell-based; settings: IMR90 fibroblasts, 5 μM
Description: as §1, §2

[3] = tested on: primary HSCs from WT NPM1 AML patients; assay: CD34+ liquid HSC short-term culture, WT NPM1 AML patients; format: cell-based; settings: Homo sapiens, n = 3
Description: Considering the inhibitory capacity of UCM-13369 on AML cell lines (shown in Figure 3A), the therapeutic potential was assessed in primary CD34+ cells from AML patients. Two ex vivo models were used from AML patients and healthy donors: CD34+ liquid HSC (hematopoietic stem cell) culture as a short-term model and CFU-E (colony-forming unit–erythroid) as a midterm model.
The test compound was diluted in PBS. […]
Primary cells. 1x10^6/mL total mononuclear bone marrow cells (as source of CD34+ HSCs) of healthy donors and AML patients were used. They were cultured using Stem SpanTM supplement with pencillin/streptomycin (500 U/ml), TPO (10 µg/mL), SCF (10 µg/mL), FLT3 (10 µg/mL), IL-6 (10 µg/mL) and IL-3 (10 µg/mL). After 24 h fresh medium was added. After 72 h in maintenance cells were ready to start the assays. All cells wer e maintained at 37 °C in a humidified incubator in an atmosphere of 5% CO2. […]

COc1ccc(C2Cc3[nH]c4ccccc4c3C(CCNCC3CC3)C2N)cc1 (centres unmarked) [4b, 4-{2-[(Cyclopropylmethyl)amino]ethyl}-2-(4-methoxyphenyl)-2,3,4,9-tetrahydro-1H-carbazol-3-amine]
CD34+/AnnexinV+ [1]: 43.09%
Subcellular localization of NPM1 (in words) (NPM1 C+): reduction of the cytoplasmic form of the protein
viability at 48 h, 5 µM [2]: 100%
Toxicity in nontumor cells (in words) (IMR90 fibroblasts): not toxic
IC50 [3]: 3.77 µM
